This passage reports IC50 results from article PMC3786134 (ChemMedChem, 2012).

SMILES strings stand for the structures. Bounds are passed on as bounds.

In one experiment the target is APOBEC3A (A3A) (Homo sapiens, UniProt P31941). Nature of the experiment: fluorescence ssDNA C-to-U deaminase assay. Type of experiment: biochemical.
Another experiment concerns the target APOBEC3G (A3G) (Homo sapiens, UniProt Q9HC16). The experiment is described as follows: fluorescence ssDNA C-to-U deaminase assay. Type of experiment: biochemical.

Chain of APOBEC3G (A3G) (Q9HC16 whole entry): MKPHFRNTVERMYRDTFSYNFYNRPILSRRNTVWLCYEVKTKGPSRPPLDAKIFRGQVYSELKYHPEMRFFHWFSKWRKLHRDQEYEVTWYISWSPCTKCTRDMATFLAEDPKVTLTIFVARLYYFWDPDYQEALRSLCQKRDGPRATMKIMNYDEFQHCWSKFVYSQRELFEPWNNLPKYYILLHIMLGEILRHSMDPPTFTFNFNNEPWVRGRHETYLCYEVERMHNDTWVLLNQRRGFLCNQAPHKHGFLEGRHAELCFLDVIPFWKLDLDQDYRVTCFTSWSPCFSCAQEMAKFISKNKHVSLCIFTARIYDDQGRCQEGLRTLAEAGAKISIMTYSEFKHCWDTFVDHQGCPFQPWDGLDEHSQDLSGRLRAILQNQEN
Chain of APOBEC3A (A3A) (P31941 whole entry): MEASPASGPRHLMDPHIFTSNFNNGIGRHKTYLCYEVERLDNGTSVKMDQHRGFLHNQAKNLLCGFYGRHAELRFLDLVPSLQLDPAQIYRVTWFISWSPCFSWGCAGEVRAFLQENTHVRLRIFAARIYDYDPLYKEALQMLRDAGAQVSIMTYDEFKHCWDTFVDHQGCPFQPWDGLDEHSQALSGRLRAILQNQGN

With `Cc1nnc(O)n1N` [compound 7, 4-amino-5-methyl-1,2,4-triazol-3-ol], at APOBEC3A (A3A), the IC50 was above 100 µM.

With `Cc1nnc(S)n1N` [compound 5, 4-amino-5-methyl-1,2,4-triazole-3-thiol], the IC50 against APOBEC3G (A3G) is 6.1 ± 1.1 µM; at APOBEC3A (A3A) it was above 100 µM.

For `COc1ccc(C=Nn2c(C)nnc2S)cc1` [compound 8, 4-((4-methoxybenzylidene)amino)-5-methyl-1,2,4-triazole-3-thiol], the IC50 is 3.9 ± 1.2 µM against APOBEC3G (A3G) and above 100 µM against APOBEC3A (A3A).

For `Nn1cnnc1S` [compound 4, 4-amino-1,2,4-triazole-3-thiol], the IC50 against APOBEC3G (A3G) and against APOBEC3A (A3A) was above 100 µM each time.

`S=c1[nH]ncn1N=Cc1ccc(Br)cc1` [compound 1, 4-((4-bromobenzylidene)amino)-1,2,4-triazole-3-thiol]: the IC50 against APOBEC3G (A3G) is 4.3 ± 1.1 µM; at APOBEC3A (A3A) it was above 100 µM.

At APOBEC3A (A3A), `Cc1nnc(SCc2ccccc2)n1N` [compound 11, 3-(benzylthio)-5-methyl-1,2,4-triazol-4-amine] gave an IC50 above 100 µM.

As to `Cc1nnc(S)n1NC(=O)c1ccccc1` [compound 9, N-(3-mercapto-5-methyl-1,2,4-triazol-4-yl)benzamide], the IC50 on APOBEC3G (A3G) is 8.2 ± 1.2 µM; against APOBEC3A (A3A), above 100 µM.

The IC50 is the concentration that gives 50% inhibition.
